Assay: recombinant UMI read abundance after kanamycin selection (control-corrected) (log10(CPM+1)); higher = more efficient recombination; extreme values may be limits of the assay; sequences stand for … in AGTGCAGAGAAAATCGGCCAGTTTTCTCTGCCTGCAGTCCGCATGCCGTGGGACCCCTTGGGTTCTAACCTGTTGCCTAGATTTATGCAGCGGACTGCCTTTCTCCCAAAGTGATAAACCGG…AGGTTGGTTTCACT; site = the 11-nt donor
Summary of the method: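 After plating on IPTG (0.07 mM) plus kanamycin, or unselected, in two replicates, recombinant UMIs were PCR-amplified across the donor–target junction and sequenced. The cells were Escherichia coli co-electroporated with a UMI-tagged donor and donor-binding-loop pair library and a target plasmid with a fixed target and T7-inducible IS621 bridge recombinase. Values are log10(CPM+1), with CPM averaged over replicates and scaled by control-derived factors.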
With “CAGTTCCCATGGACCGGTTTTCCCGGTAATCCGTATTTGCT (site CAGTTCCCTAG)” the “recombinant UMI read abundance (log10)” value was 0.863.
In the case of “CAGTTCCCATGGACCGGTTTTCCCGGTAATCCGTATTTGCT (site CATTTCCCTAG)”, the “recombinant UMI read abundance (log10)” value is reported as 0.433.
With “CAGTTGGCATGGACCGGTTTTCCCGGTAATCCGTATTTGGA (site CAATTGGCTTC)” the “recombinant UMI read abundance (log10)” value was 0.882.
For “CAGTTGGCATGGACCGGTTTTCCCGGTAATCCGTATTTGGA (site CACTTGGCTTC)”, the “recombinant UMI read abundance (log10)” value was 0.076.
In the case of “CAGTTGGCATGGACCGGTTTTCCCGGTAATCCGTATTTGGA (site CAGTTGGCTTC)”, the “recombinant UMI read abundance (log10)” value is reported as 1.72.
With “CAGTTGGCATGGACCGGTTTTCCCGGTAATCCGTATTTGGA (site CATTTGGCTTC)” the “recombinant UMI read abundance (log10)” value was 0.00616.
For “CATAATACATGGACCGGTTTTCCCGGTAATCCGTATTTGGC (site CATAATACTGC)”, the “recombinant UMI read abundance (log10)” value was 1.88.
In the case of “CATAATACATGGACCGGTTTTCCCGGTAATCCGTATTTGGC (site CCTAATACTGC)”, the “recombinant UMI read abundance (log10)” value is reported as 0.
In the case of “CATAATACATGGACCGGTTTTCCCGGTAATCCGTATTTGGC (site CGTAATACTGC)”, the “recombinant UMI read abundance (log10)” value is reported as 0.
For “CATAATACATGGACCGGTTTTCCCGGTAATCCGTATTTGGC (site CTTAATACTGC)”, the “recombinant UMI read abundance (log10)” value was 0.
In the case of “CATAGCCCATGGACCGGTTTTCCCGGTAATCCGTATTTGAG (site CATAGCCCTCT)”, the “recombinant UMI read abundance (log10)” value is reported as 0.0141.
In the case of “CATATTGCATGGACCGGTTTTCCCGGTAATCCGTATTTGCA (site CATATTGCTTG)”, the “recombinant UMI read abundance (log10)” value is reported as 0.
For “CATATTGCATGGACCGGTTTTCCCGGTAATCCGTATTTGTT (site CATATTGCTAA)”, the “recombinant UMI read abundance (log10)” value was 1.21.
For “CATCACACATGGACCGGTTTTCCCGGTAATCCGTATTTGGT (site CATCACACTAC)”, the “recombinant UMI read abundance (log10)” value was 1.24.
For “CATCGAACATGGACCGGTTTTCCCGGTAATCCGTATTTGAT (site CATCGAACTAT)”, the “recombinant UMI read abundance (log10)” value was 0.616.
With “CATCGAACATGGACCGGTTTTCCCGGTAATCCGTATTTGCT (site CATCGAACTAG)” the “recombinant UMI read abundance (log10)” value was 2.31.
For “CATCGGACATGGACCGGTTTTCCCGGTAATCCGTATTTGAA (site CATCGGACTTT)”, the “recombinant UMI read abundance (log10)” value was 1.53.
For “CATCGGGCATGGACCGGTTTTCCCGGTAATCCGTATTTGCC (site CATCGGGCTGG)”, the “recombinant UMI read abundance (log10)” value was 1.31.
For “CATCTTGCATGGACCGGTTTTCCCGGTAATCCGTATTTGCG (site CATCTTGCTCG)”, the “recombinant UMI read abundance (log10)” value was 0.00609.
In the case of “CATCTTTCATGGACCGGTTTTCCCGGTAATCCGTATTTGGT (site CATCTTTCTAC)”, the “recombinant UMI read abundance (log10)” value is reported as 0.00559.
In the case of “CATGCGCCATGGACCGGTTTTCCCGGTAATCCGTATTTGTG (site CAAGCGCCTCA)”, the “recombinant UMI read abundance (log10)” value is reported as 0.0274.
With “CATGCGCCATGGACCGGTTTTCCCGGTAATCCGTATTTGTG (site CACGCGCCTCA)” the “recombinant UMI read abundance (log10)” value was 0.0136.
For “CATGCGCCATGGACCGGTTTTCCCGGTAATCCGTATTTGTG (site CAGGCGCCTCA)”, the “recombinant UMI read abundance (log10)” value was 0.025.
In the case of “CATGCGCCATGGACCGGTTTTCCCGGTAATCCGTATTTGTG (site CATGCGCCTCA)”, the “recombinant UMI read abundance (log10)” value is reported as 0.0238.
For “CATGGCCCATGGACCGGTTTTCCCGGTAATCCGTATTTGTT (site CAAGGCCCTAA)”, the “recombinant UMI read abundance (log10)” value was 0.0112.
With “CATGGCCCATGGACCGGTTTTCCCGGTAATCCGTATTTGTT (site CACGGCCCTAA)” the “recombinant UMI read abundance (log10)” value was 0.00402.
For “CATGGCCCATGGACCGGTTTTCCCGGTAATCCGTATTTGTT (site CAGGGCCCTAA)”, the “recombinant UMI read abundance (log10)” value was 0.0418.
In the case of “CATGGCCCATGGACCGGTTTTCCCGGTAATCCGTATTTGTT (site CATGGCCCTAA)”, the “recombinant UMI read abundance (log10)” value is reported as 0.00575.
With “CATTAGCCATGGACCGGTTTTCCCGGTAATCCGTATTTGGA (site CATTAGCCTTC)” the “recombinant UMI read abundance (log10)” value was 0.0164.
With “CATTCCACATGGACCGGTTTTCCCGGTAATCCGTATTTGCA (site CATTCCACTTG)” the “recombinant UMI read abundance (log10)” value was 1.95.
With “CATTCGACATGGACCGGTTTTCCCGGTAATCCGTATTTGGG (site CAATCGACTCC)” the “recombinant UMI read abundance (log10)” value was 0.0123.
With “CATTCGACATGGACCGGTTTTCCCGGTAATCCGTATTTGGG (site CACTCGACTCC)” the “recombinant UMI read abundance (log10)” value was 0.0107.
For “CATTCGACATGGACCGGTTTTCCCGGTAATCCGTATTTGGG (site CAGTCGACTCC)”, the “recombinant UMI read abundance (log10)” value was 0.0114.
For “CATTCGACATGGACCGGTTTTCCCGGTAATCCGTATTTGGG (site CATTCGACTCC)”, the “recombinant UMI read abundance (log10)” value was 0.00677.
With “CATTCTCCATGGACCGGTTTTCCCGGTAATCCGTATTTGAG (site CATTCTCCTCT)” the “recombinant UMI read abundance (log10)” value was 0.0129.
With “CATTGAACATGGACCGGTTTTCCCGGTAATCCGTATTTGTT (site CATTGAACTAA)” the “recombinant UMI read abundance (log10)” value was 0.0984.
In the case of “CATTGCACATGGACCGGTTTTCCCGGTAATCCGTATTTGTT (site CATTGCACTAA)”, the “recombinant UMI read abundance (log10)” value is reported as 0.487.
In the case of “CATTGCTCATGGACCGGTTTTCCCGGTAATCCGTATTTGAA (site CAATGCTCTTT)”, the “recombinant UMI read abundance (log10)” value is reported as 0.335.
For “CATTGCTCATGGACCGGTTTTCCCGGTAATCCGTATTTGAA (site CACTGCTCTTT)”, the “recombinant UMI read abundance (log10)” value was 0.00354.
For “CATTGCTCATGGACCGGTTTTCCCGGTAATCCGTATTTGAA (site CAGTGCTCTTT)”, the “recombinant UMI read abundance (log10)” value was 0.351.
For “CATTGCTCATGGACCGGTTTTCCCGGTAATCCGTATTTGAA (site CATTGCTCTTT)”, the “recombinant UMI read abundance (log10)” value was 1.05.
For “CCAAATTCATGGACCGGTTTTCCCGGTAATCCGTATTTGTT (site CCAAATTCTAA)”, the “recombinant UMI read abundance (log10)” value was 0.
With “CCAACCCCATGGACCGGTTTTCCCGGTAATCCGTATTTGCT (site CCAACCCCTAG)” the “recombinant UMI read abundance (log10)” value was 0.
In the case of “CCAACGGCATGGACCGGTTTTCCCGGTAATCCGTATTTGCG (site CCAACGGCTCG)”, the “recombinant UMI read abundance (log10)” value is reported as 1.52.
With “CCAACTACATGGACCGGTTTTCCCGGTAATCCGTATTTGAC (site CCAACTACTGT)” the “recombinant UMI read abundance (log10)” value was 0.998.
In the case of “CCAAGGGCATGGACCGGTTTTCCCGGTAATCCGTATTTGCT (site CCAAGGGCTAG)”, the “recombinant UMI read abundance (log10)” value is reported as 0.
In the case of “CCACCAGCATGGACCGGTTTTCCCGGTAATCCGTATTTGTA (site CCACCAGCTTA)”, the “recombinant UMI read abundance (log10)” value is reported as 1.17.
For “CCACTAACATGGACCGGTTTTCCCGGTAATCCGTATTTGGA (site CAACTAACTTC)”, the “recombinant UMI read abundance (log10)” value was 0.0202.
For “CCACTAACATGGACCGGTTTTCCCGGTAATCCGTATTTGGA (site CCACTAACTTC)”, the “recombinant UMI read abundance (log10)” value was 0.235.
With “CCACTAACATGGACCGGTTTTCCCGGTAATCCGTATTTGGA (site CGACTAACTTC)” the “recombinant UMI read abundance (log10)” value was 0.0202.
For “CCACTAACATGGACCGGTTTTCCCGGTAATCCGTATTTGGA (site CTACTAACTTC)”, the “recombinant UMI read abundance (log10)” value was 0.0175.
For “CCACTATCATGGACCGGTTTTCCCGGTAATCCGTATTTGAC (site CCACTATCTGT)”, the “recombinant UMI read abundance (log10)” value was 1.02.
With “CCACTATCATGGACCGGTTTTCCCGGTAATCCGTATTTGAC (site CTAGTATCTGT)” the “recombinant UMI read abundance (log10)” value was 0.
With “CCAGAGACATGGACCGGTTTTCCCGGTAATCCGTATTTGCG (site ACAGAGACTCG)” the “recombinant UMI read abundance (log10)” value was 0.249.
With “CCAGAGACATGGACCGGTTTTCCCGGTAATCCGTATTTGCG (site CCAGAGACTCG)” the “recombinant UMI read abundance (log10)” value was 1.76.
For “CCAGAGACATGGACCGGTTTTCCCGGTAATCCGTATTTGCG (site GCAGAGACTCG)”, the “recombinant UMI read abundance (log10)” value was 0.0188.
In the case of “CCAGAGACATGGACCGGTTTTCCCGGTAATCCGTATTTGCG (site TCAGAGACTCG)”, the “recombinant UMI read abundance (log10)” value is reported as 0.381.
With “CCAGCGCCATGGACCGGTTTTCCCGGTAATCCGTATTTGTG (site CAAGCGCCTCA)” the “recombinant UMI read abundance (log10)” value was 0.0258.
In the case of “CCAGCGCCATGGACCGGTTTTCCCGGTAATCCGTATTTGTG (site CCAGCGCCTCA)”, the “recombinant UMI read abundance (log10)” value is reported as 0.045.
For “CCAGCGCCATGGACCGGTTTTCCCGGTAATCCGTATTTGTG (site CGAGCGCCTCA)”, the “recombinant UMI read abundance (log10)” value was 0.0423.
For “CCAGCGCCATGGACCGGTTTTCCCGGTAATCCGTATTTGTG (site CTAGCGCCTCA)”, the “recombinant UMI read abundance (log10)” value was 0.
With “CCAGCTGCATGGACCGGTTTTCCCGGTAATCCGTATTTGAT (site CCAGATGCTAT)” the “recombinant UMI read abundance (log10)” value was 0.00428.
In the case of “CCAGCTGCATGGACCGGTTTTCCCGGTAATCCGTATTTGAT (site CCAGCTGCTAT)”, the “recombinant UMI read abundance (log10)” value is reported as 1.7.
For “CCAGCTGCATGGACCGGTTTTCCCGGTAATCCGTATTTGAT (site CCAGGTGCTAT)”, the “recombinant UMI read abundance (log10)” value was 0.00694.
For “CCAGCTGCATGGACCGGTTTTCCCGGTAATCCGTATTTGAT (site CCAGTTGCTAT)”, the “recombinant UMI read abundance (log10)” value was 0.00911.
With “CCAGGGCCATGGACCGGTTTTCCCGGTAATCCGTATTTGTG (site CCAGGGCCTCA)” the “recombinant UMI read abundance (log10)” value was 0.00753.
With “CCAGGTCCATGGACCGGTTTTCCCGGTAATCCGTATTTGAT (site CCAGGTACTAT)” the “recombinant UMI read abundance (log10)” value was 0.
In the case of “CCAGGTCCATGGACCGGTTTTCCCGGTAATCCGTATTTGAT (site CCAGGTCCTAT)”, the “recombinant UMI read abundance (log10)” value is reported as 0.341.
With “CCAGGTCCATGGACCGGTTTTCCCGGTAATCCGTATTTGAT (site CCAGGTGCTAT)” the “recombinant UMI read abundance (log10)” value was 0.
In the case of “CCAGGTCCATGGACCGGTTTTCCCGGTAATCCGTATTTGAT (site CCAGGTTCTAT)”, the “recombinant UMI read abundance (log10)” value is reported as 0.
With “CCAGGTGCATGGACCGGTTTTCCCGGTAATCCGTATTTGAA (site CCAGGTGCTAT)” the “recombinant UMI read abundance (log10)” value was 0.00736.
For “CCAGGTGCATGGACCGGTTTTCCCGGTAATCCGTATTTGAA (site CCAGGTGCTCT)”, the “recombinant UMI read abundance (log10)” value was 0.218.
For “CCAGGTGCATGGACCGGTTTTCCCGGTAATCCGTATTTGAA (site CCAGGTGCTGT)”, the “recombinant UMI read abundance (log10)” value was 0.
For “CCAGGTGCATGGACCGGTTTTCCCGGTAATCCGTATTTGAA (site CCAGGTGCTTT)”, the “recombinant UMI read abundance (log10)” value was 1.73.
For “CCAGGTGCATGGACCGGTTTTCCCGGTAATCCGTATTTGAC (site CCAGGTGCTAT)”, the “recombinant UMI read abundance (log10)” value was 0.0299.

From the supplement of paper PMC11208160
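Note: IS621 bridge recombinase in Escherichia coli cells against a fixed T5 target plasmid.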
